Test system: pregnancy maintenance (peripheral gestagenic activity)
Assay: pregnancy maintenance test in ovariectomized rats
Format: in vivo, rat
Conditions: ovariectomized pregnant rats, subcutaneous once daily with estrone 5 μg/kg/day, day 8 to day 15 or 21
Excerpt: Executing the Pregnancy Maintenance Test in Rats:
In pregnant rats, removal of the corpora lutea or castration induces abortion. By exogenous supplying of progestins (gestagens) in combination with a suitable dose of estrogens, pregnancy can be maintained. The pregnancy maintenance test in ovariectomized rats serves to determine peripheral gestagenic activity of a compound.
Rats are paired up during the proestrus overnight. Mating is monitored on the morning of the following day by vaginal smear inspection. The presence of sperm is considered in this case as day 1 of the beginning of pregnancy. On day 8 of pregnancy, the animals are ovariectomized under ether anesthesia. […]
At the end of the test (day 15 or day 21), the animals are sacrificed under CO2 atmosphere, and live fetuses (fetuses with beating hearts) and implantation sites (early resorptions and dead fetuses including autolysis and atrophic placentas) in both uterine horns are counted. […] In uteri without fetuses or implantation sites, the number of nidation sites is determined by staining with 10% ammonium sulfide solution. The pregnancy maintenance rate is calculated as the quotient of the number of living fetuses and the total number of nidation sites (both resorbed and dead fetuses as well as nidation sites). […]

## CCC12CCC3C4CCC(=O)C=C4C4CC4C3C1C1CC1C21CCC(=O)O1 (stereo not drawn) [compound 3a, 18-Methyl-6α,7α-15β,16β-dimethylene-3-oxo-19-nor-17-pregn-4-ene-21,17-carbolactone]
  pregnancy-maintaining dose (ED50): 120 µg/kg/day

Reference: patent US8445469B2, “18-methyl-19-nor-17-pregn-4-ene-21,17-carbolactones, as well as pharmaceutical preparations that contain the latter” (Bayer Intellectual Property GmbH, priority 2004, dated 2013)
